Assay in all cases: inhibition of tumour cell growth, NCI panel, 48 h
Experiment [1] has as its system LOX IMVI melanoma.
Experiment [2] relates to 786-0 renal.
Experiment [3] concerns A498 renal.
The subject of experiment [4] is SN12C renal.
For experiment [5], the system named is SK-OV-3 ovarian.
Experiment [6] has as its system SNB-19 CNS.
The subject of experiment [7] is NCI-H226 lung.
Experiment [8] concerns OVCAR-8 ovarian.
For experiment [9], the system named is K-562 leukemia.
Experiment [10] concerns SF-295 CNS.
The test system of experiment [11] is HCT-116 colon.
For experiment [12], the system named is SK-MEL-2 melanoma.
Experiment [13] has as its system A549 NSCLC.
The subject of experiment [14] is SK-MEL-5 melanoma.
In experiment [15] the test system is ACHN renal.
Experiment [16] has as its system SK-MEL-28 melanoma.
For experiment [17], the system named is NCI/ADR-RES ovarian.
Experiment [18] has as its system HL-60(TB) leukemia.
Experiment [19] concerns UACC-62 melanoma.

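A five-concentration, 48-hour dose response in 96-well plates underlies each endpoint, interpolated linearly between surrounding concentrations. At the TGI there is no net growth.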

Results on seven molecules are retold here after PubChem BioAssay (NCI).

For the molecule `CNC(=O)C1(C#N)C(c2ccccc2)C(C#N)(C(=O)NC)C1c1ccccc1` (stereo unspecified), the TGI in experiment [1], in experiment [2], in experiment [3], in [4], in experiment [5] and in experiment [6] was greater than 100 µM each time. Besides, the TGI in experiment [7], in experiment [8], in [9], in experiment [10], in [11] and in [12] was greater than 100 µM in each case. In addition, the TGI in experiment [13], in experiment [14], in experiment [15], in experiment [16] and in experiment [17] was greater than 100 µM in each case.

As for `COc1ccc(N2C(=O)C3c4[nH]c5ccccc5c4C4CC(C)(C)CC(C)(C)C4C3C2=O)cc1` (stereo unspecified), the TGI came to 28.3 µM in experiment [2]; 30.1 µM in experiment [3]; 33.2 µM in experiment [4]; 38.2 µM in [5]; 52.7 µM in [6]; 29.3 µM in experiment [7]. In addition, the TGI in experiment [8] is 11.1 µM; in [9] it was greater than 100 µM; in experiment [10] it was 21.4 µM; in experiment [11] it was 30.4 µM; in experiment [13], 27.3 µM; in [14], 41.3 µM. In addition, the TGI in experiment [18] was greater than 100 µM; in [15], 31.9 µM; in experiment [16], 27.7 µM; in experiment [19] it was 27.6 µM.

For `CC(c1ccc2c(c1)CCC1C2CC2OC23CC=CC(=O)[C@]13C)C1C[C@]2(C)O[C@]2(C)[C@H](O)O1` (stereo partly specified), the TGI in [1] is greater than 100 µM; in [2], greater than 100 µM; in experiment [4], greater than 100 µM; in [5] it was greater than 100 µM; in experiment [6] it was greater than 100 µM; in experiment [7] it was 72 µM. For the same molecule, the TGI in experiment [8] is greater than 100 µM; in [9] it was greater than 100 µM; in [11], greater than 100 µM; in experiment [12] it was greater than 100 µM; in [13], greater than 100 µM; in experiment [14] it was 28.1 µM. For the same molecule, the TGI in experiment [18] is 71.9 µM; in experiment [15], greater than 100 µM; in experiment [16], greater than 100 µM; in experiment [19], greater than 100 µM.

Turning to `O=C1Cc2nc(CO)c(CO)c(CO)c2CO1`, the TGI in experiment [1], in experiment [2], in [3], in experiment [4], in [5] and in experiment [6] was greater than 100 µM in each case. The TGI in experiment [8], in experiment [9], in experiment [10], in [11], in [12] and in experiment [13] was greater than 100 µM in each case. For the same molecule, the TGI in [14], in [18], in [15], in experiment [16] and in experiment [19] was greater than 100 µM in each case.

Take `O=c1[nH]c(=O)n(C2CC(O)C(CO)O2)cc1C(F)(C(F)(F)F)C(F)(F)F` (stereo unspecified): the TGI in [1], in experiment [2], in [3], in experiment [4], in experiment [5] and in experiment [6] was greater than 100 µM throughout. In addition, the TGI in experiment [7], in [8], in [9], in [10], in [12] and in [14] was greater than 100 µM in each case. Moreover, the TGI in [18], in experiment [15], in [16] and in experiment [19] was greater than 100 µM each time.

Regarding `COC1(C)C(=O)N2C1N(C(=O)OC(C)(C)C)CC2(C)C` (stereo unspecified), the TGI was 53.1 µM in experiment [1]; greater than 100 µM in experiment [2]; greater than 100 µM in [3]; greater than 100 µM in experiment [4]; greater than 100 µM in experiment [5]; greater than 100 µM in experiment [6]. Further, the TGI in [7], in experiment [8], in [9], in [10], in experiment [11] and in [12] was greater than 100 µM throughout. The TGI in [13], in [14], in experiment [18], in experiment [15], in experiment [16] and in [19] was greater than 100 µM throughout.

Regarding `c1cc2nnsc2s1`, the TGI in [1], in experiment [2], in experiment [3], in experiment [4], in experiment [5] and in experiment [6] was greater than 100 µM each time. Also, the TGI in experiment [7], in experiment [8], in [9], in [10], in [12] and in experiment [14] was greater than 100 µM throughout. The TGI in experiment [18], in [15], in [16] and in experiment [19] was greater than 100 µM in each case.
